Data reported in PubChem BioAssay (NCI).
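Where inhibition never reached the appropriate level, the endpoint shown equals the highest concentration tested. Otherwise, values were interpolated linearly from a five-concentration, 48-hour dose response in 96-well plates. TGI: concentration producing complete growth inhibition.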

Columns and labels:
Assay in all cases: inhibition of tumour cell growth, NCI panel, 48 h
OVCAR-4 ovarian = system: OVCAR-4 ovarian
SK-MEL-5 melanoma = system: SK-MEL-5 melanoma
NCI-H23 lung = system: NCI-H23 lung
IGROV1 ovarian = system: IGROV1 ovarian
KM20L2 colon = system: KM20L2 colon
UO-31 renal = system: UO-31 renal
A498 renal = system: A498 renal
SK-MEL-28 melanoma = system: SK-MEL-28 melanoma
RPMI-8226 leukemia = system: RPMI-8226 leukemia
SF-539 CNS = system: SF-539 CNS
HCT-15 colon = system: HCT-15 colon
NCI-H460 lung = system: NCI-H460 lung
OVCAR-3 ovarian = system: OVCAR-3 ovarian
NCI-H226 lung = system: NCI-H226 lung
HCC-2998 colon = system: HCC-2998 colon
HT29 colon = system: HT29 colon
ACHN renal = system: ACHN renal
SF-295 CNS = system: SF-295 CNS
A549 NSCLC = system: A549 NSCLC
UACC-257 melanoma = system: UACC-257 melanoma
DMS 273 small cell lung = system: DMS 273 small cell lung
SN12C renal = system: SN12C renal
LXFL 529 NSCLC = system: LXFL 529 NSCLC
OVCAR-8 ovarian = system: OVCAR-8 ovarian
HOP-62 NSCLC = system: HOP-62 NSCLC
SF-268 CNS = system: SF-268 CNS
SNB-19 CNS = system: SNB-19 CNS
MOLT-4 leukemia = system: MOLT-4 leukemia
U251 CNS = system: U251 CNS
HOP-92 NSCLC = system: HOP-92 NSCLC
786-0 renal = system: 786-0 renal
DLD-1 colon = system: DLD-1 colon
UACC-62 melanoma = system: UACC-62 melanoma
CAKI-1 renal = system: CAKI-1 renal
NCI-H522 lung = system: NCI-H522 lung
HOP-18 NSCLC = system: HOP-18 NSCLC
CCRF-CEM leukemia = system: CCRF-CEM leukemia
KM12 colon = system: KM12 colon
K-562 leukemia = system: K-562 leukemia
SNB-78 CNS = system: SNB-78 CNS
SW-620 colon = system: SW-620 colon
HL-60(TB) leukemia = system: HL-60(TB) leukemia
RXF-631 renal = system: RXF-631 renal
SK-OV-3 ovarian = system: SK-OV-3 ovarian
M19-MEL melanoma = system: M19-MEL melanoma
HCT-116 colon = system: HCT-116 colon
OVCAR-5 ovarian = system: OVCAR-5 ovarian
COLO 205 colon = system: COLO 205 colon
EKVX NSCLC = system: EKVX NSCLC
M14 melanoma = system: M14 melanoma
SNB-75 CNS = system: SNB-75 CNS
DMS 114 small cell lung = system: DMS 114 small cell lung
TK-10 renal = system: TK-10 renal
MALME-3M melanoma = system: MALME-3M melanoma
SK-MEL-2 melanoma = system: SK-MEL-2 melanoma
RXF 393 renal = system: RXF 393 renal
SR leukemia = system: SR leukemia
LOX IMVI melanoma = system: LOX IMVI melanoma

Measured: TGI

O=C(CCc1n[nH]c(=S)o1)Nc1ccc(Cl)cc1Cl
29.9 µM: SW-620 colon
44.4 µM: RPMI-8226 leukemia
46.1 µM: HCT-15 colon
not listed: SK-MEL-2 melanoma | RXF 393 renal | SR leukemia | LOX IMVI melanoma
> 100 µM: all other assays above

CNCCCCN(C)/[N+]([O-])=N\O
not listed: A498 renal | TK-10 renal | SR leukemia | LOX IMVI melanoma
> 100 µM: all other assays above

CC(N)Cc1ccc(F)cc1 (stereo not given)
not listed: M19-MEL melanoma
> 100 µM: all other assays above
